Target: T1, human mGlu2 receptor (Homo sapiens, UniProt Q14416)
T1 construct: expressed in transfected cells; co-transfected with rat EAAT1 and Galpha15
Assay: Human mGlu2 Agonist FLIPR Assay
Type: cell-based
Settings: hmGlu2 FLIPR assay, AV-12 cells, relative EC50
Excerpt: AV-12 cell lines, derived from Syrian Hamster fibroblasts and stably expressing the human mGlu2 receptor and co-transfected with the rat glutamate transporter EAAT 1 (Excitatory Amino Acid Transporter 1) and the Gα15 subunit, are used for these studies. The expression of Gα15 allows Gi-coupled receptors to signal through the phospholipase C pathway, resulting in the ability to measure receptor activation by a fluorometric calcium response assay. […]
Intracellular calcium levels are monitored before and after the addition of compounds using a Fluorometric Imaging Plate Reader (FLIPR, Molecular Devices). […] Results are analyzed using Prism v4.03 (GraphPad Software). […] After taking an initial 5-sec fluorescent read on the FLIPR instrument, a compound of the present invention is added to the cell plate (50 μL per well). […] The compound effect is measured as maximal minus minimal peak heights in relative fluorescent units (RFUs) corrected for basal fluorescence measured in the absence of glutamate. […] Agonist effects are quantified as percent stimulation induced by compound alone relative to the maximal glutamate response. All data are calculated as relative EC50 values using a four-parameter logistic curve fitting program (ActivityBase v5.3.1.22).

T1 sequence (Q14416 19-872): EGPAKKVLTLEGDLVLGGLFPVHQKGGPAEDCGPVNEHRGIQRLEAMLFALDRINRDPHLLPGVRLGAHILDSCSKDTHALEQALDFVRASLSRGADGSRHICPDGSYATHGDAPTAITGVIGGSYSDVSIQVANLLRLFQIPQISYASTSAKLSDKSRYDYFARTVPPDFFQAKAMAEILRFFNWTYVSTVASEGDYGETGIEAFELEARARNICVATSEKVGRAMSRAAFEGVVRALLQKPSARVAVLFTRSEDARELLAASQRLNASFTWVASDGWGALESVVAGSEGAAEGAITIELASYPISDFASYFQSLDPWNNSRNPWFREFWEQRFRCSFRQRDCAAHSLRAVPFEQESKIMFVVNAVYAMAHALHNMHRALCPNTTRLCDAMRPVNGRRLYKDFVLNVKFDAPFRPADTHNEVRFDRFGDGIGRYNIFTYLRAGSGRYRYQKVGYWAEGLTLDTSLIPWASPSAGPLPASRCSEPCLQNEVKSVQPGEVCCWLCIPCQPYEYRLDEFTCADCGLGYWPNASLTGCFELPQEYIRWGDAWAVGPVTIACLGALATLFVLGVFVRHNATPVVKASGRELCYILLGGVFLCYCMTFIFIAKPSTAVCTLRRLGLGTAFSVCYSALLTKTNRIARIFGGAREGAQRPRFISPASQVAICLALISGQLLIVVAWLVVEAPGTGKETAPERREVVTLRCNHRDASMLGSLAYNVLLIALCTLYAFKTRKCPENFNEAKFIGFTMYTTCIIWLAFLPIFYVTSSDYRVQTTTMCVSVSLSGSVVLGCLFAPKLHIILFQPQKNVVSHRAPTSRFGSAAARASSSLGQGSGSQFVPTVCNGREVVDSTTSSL

- EC50: 23 nM
Compound: N[C@@]1(C(=O)O)C[C@@H](Sc2nnc[nH]2)[C@H]2[C@H](C(=O)O)[C@H]21 [Example 1, (1R,2S,4R,5R,6R)-2-Amino-4-(4H-1,2,4-triazol-3-ylsulfanyl)bicyclo[3.1.0]hexane-2,6-dicarboxylic acid]
